Laboratory results taken from patent US20100047294A1, “SEMI-FINISHED PRODUCT IN THE MANUFACTURE OF A COMPOSITION FOR SKIN OR HAIR CARE” (OY GRANULA AB LTD, priority 2006, published 2010).
Like-named read-outs stand apart in the source and are kept apart here.

How the values were obtained:
[1] = Ability to capture free radicals (statements in words)
[2] = extracts from knot wood of the tree trunk; compared with Trolox; lower value = better capture; cited from earlier work

Row | Molecule | Capture of peroxyl radicals in vitro [2] [g/mol] | also measured
1 | COc1cc(C[C@H]2COC(=O)C2C(=O)c2ccc(O)c(OC)c2)ccc1O (some centres unmarked) [7-oxomatairesinol] |  | ability to capture free radicals, in words [1]: even better than that of hydroxymatairesinol; ability to capture free radicals, in words ([1]; listed as Oxomatairesinol): comparable to that of hydroxymatairesinol or even better; ability to capture free radicals, in words ([1]; listed as oxomatairesinol): relatively good in capturing the free radicals
2 | COc1cc([C@H]2c3cc(O)c(OC)cc3C[C@@H](CO)[C@@H]2CO)ccc1O [cyclolariciresinol] | 118 | 
3 | COc1cc(C[C@H]2C(=O)OC[C@@H]2[C@H](O)c2ccc(O)c(OC)c2)ccc1O [hydroxymatairesinol] | 179 | ability to capture free radicals, in words [1]: relatively good in capturing the free radicals
4 | COc1cc(C[C@H]2CO[C@H](c3ccc(O)c(OC)c3)[C@H]2CO)ccc1O [lariciresinol] | 370 | 
5 | COc1cc(C[C@H]2COC(=O)[C@@H]2Cc2ccc(O)c(OC)c2)ccc1O [matairesinol] | 345 | 
6 | Oc1ccc([C@H]2Oc3c(ccc(O)c3O)[C@@H](O)[C@H]2O)cc1O [melacasidine] | 50 | 
7 | COc1cc(CC2COC(=O)C2(O)Cc2ccc(O)c(OC)c2)ccc1O (centres unmarked) [nortrachelogenin] | 169 | 
8 | COc1cc(C[C@@H](CO)[C@H](CO)Cc2ccc(O)c(OC)c2)ccc1O [secoisolariciresinol] |  | ability to capture free radicals, in words [1]: relatively good in capturing the free radicals
9 | Oc1ccc([C@H]2Oc3c(ccc(O)c3O)[C@@H](O)[C@H]2O)cc1 [teracasidine] | 128 | 
10 | Cc1c(C)c2c(c(C)c1O)CCC(C)(C(=O)O)O2 (centres unmarked) [trolox, reference compound] | 125 | 
11 | pinoresinol | 129 | 
